The results in this text go back to patent US10238670B2, “9-aminomethyl minocycline compounds and methods of use thereof in urinary tract infection (UTI) treatment” (Paratek Pharmaceuticals, Inc., priority 2016, dated 2019).

What is called AUC(0-inf) is the area under the concentration-time curve extrapolated to infinity. High values mean high exposure, low ones low exposure. What is called MIC90 is an inhibitory concentration at the 90% level, which refers to growth in some studies and to a panel of isolates in others. A low value points to higher susceptibility.

Data set [1] is described as follows: Pharmacokinetics of Compound 1 in mouse plasma versus kidney. In kind it is in vivo.
In the next data set the test system is Enterobacter spp. The data set is described as follows: In vitro MIC, 2010 surveillance isolates. In kind it is cell-based.
The subject of the next data set is E. coli. The data set is described as follows: In vitro activity in urine relative to standard media. Format: cell-based.

Each structure is given as a SMILES string. Values after ≈ are worked out from the molar mass of the structure shown. Like-named read-outs stand apart in the source and are kept apart here.

Take `CN(C)c1cc(CNCC(C)(C)C)c(O)c2c1C[C@H]1C[C@H]3[C@H](N(C)C)C(O)=C(C(N)=O)C(=O)[C@@]3(O)C(O)=C1C2=O` [Compound 1, 9-[(2,2-dimethyl-propylamino)-methyl]-minocycline]: the Kp is 4.2 in data set [1] (kidney/plasma, sc, Subcutaneous, 4.0 mg/kg, read-out: AUC Ratio Kidney:Plasma) and around 4 in data set [1] (tissues including kidney, relative to plasma, subcutaneous, 4 mg/kg, species not printed at b200, read-out: concentrations in tissues including the kidneys relative to plasma). Moreover, the area under the curve AUC(0-inf) in data set [1] (plasma, sc, Subcutaneous, 4.0 mg/kg) was determined as 2.82 µg·h/mL. The MIC90 came out at 16 mg/L (≈ 28.7 µM) in the data set on Enterobacter spp (Asia/Pac, N=52); 4 mg/L (≈ 7.19 µM) with Enterobacter spp (Europe, N=82); 4 mg/L (≈ 7.19 µM) against Enterobacter spp (L. Amer, N=42); 4 mg/L (≈ 7.19 µM) in the data set with Enterobacter spp (N America, N=101). For the same compound, the “activity in urine relative to standard media” value in the data set with E. coli is recorded as “stable”.

Turning to `CN(C)c1cc(NC(=O)CNC(C)(C)C)c(O)c2c1C[C@H]1C[C@H]3[C@H](N(C)C)C(O)=C(C(N)=O)C(=O)[C@@]3(O)C(O)=C1C2=O` [Tigecycline], the “% R (resistance)” value with Enterobacter spp (Asia/Pac, Eucast breakpoints) is 3.8%; in the data set on Enterobacter spp (Europe, Eucast breakpoints), 1.2%; in the data set with Enterobacter spp (L. Amer, CLSI breakpoints) it was 0%; with Enterobacter spp (N America, CLSI breakpoints) it was 0%. In addition, the MIC90 against Enterobacter spp (Asia/Pac, N=52) was 1 mg/L (≈ 1.71 µM); against Enterobacter spp (Europe, N=82), 1 mg/L (≈ 1.71 µM); against Enterobacter spp (L. Amer, N=42) it was 0.5 mg/L (≈ 0.854 µM); in the data set on Enterobacter spp (N America, N=101), 0.5 mg/L (≈ 0.854 µM).
